Test results published in patent publication US8394776B2, “Use of ursolic acid saponin,oleanolic acid saponin in preparation of increasing leucocytes and/or platelet medicine” (Chengdu Di'Ao Jiuhong Pharmaceutical Factor, priority 2007, dated 2013).
Marks after values point to notes of the source that are not given here.

Legend:
erythrocytes = assay: Comparison of hemolytic activities (HD50); format: cell-based, rabbit; settings: 10% rabbit erythrocyte suspension; 37° C., 1 hour; from linear regression over 40-200 μg/ml
Method: The test samples were dissolved in DMSO/physiological saline (1:4) as a solvent to generate the tested concentration gradients of 40, 80, 120, 160, 200 μg/ml. Blood (25 ml) was taken from a rabbit heart, poured into an erlenmeyer flask containing glass beads and shook gently for 10 min to remove fibrinogen so as to convert the blood into defidrinated blood. The resultant blood was transferred into a graduation centrifugal tube. About 10 times physiological saline was added, shook up and centrifuged at 2000 r/min for 5 minutes. The supernatant was removed, and the precipitated erythrocytes were washed with physiological saline again by the above method for 4 times until the supernatant was colorless and transparent. The resulant erythrocytes were prepared into a 10% suspension using physiological saline for testing. 250 μl of the 10% erythrocyte suspension was added into 2.5 ml of a tested sample, solvent (blank control) or distilled water (positive control), mixed thoroughly, and immediately placed in a thermotank maintained at 37° C. for incubation; and it was taken out 1 hour later and centrifuged at 3000 r/min for 5 minutes. The supernatant was taken for determining the OD value at 540 nm with a spectrophotometer. Hemolysis (Hemolysis Percentage)=(absorbance of sample−absorbance of blank control)×100%÷(absorbance of positive control-absorbance of blank control); and the data processing was performed by SPSS13.0 statistical software with drug concentration as an independent variable X and hemolysis as a dependent variable Y to obtain a linear regression equation; then, the drug concentration causing 50% hemolysis, i.e HD50, was calculated according to the equation. A P-value <0.05 was considered statistically significant.

[1] = test system: bone marrow mononuclear cell (BMMNC); assay: Monocytic proliferation in bone marrow of mice cultured in vitro (SRB method); format: cell-based, KunMing mice; settings: cultured 5 days; for Growth Rate of Proliferation %, 1 μg/ml: versus blank control
From the text: 15-20 KunMing mice (purchased from Laboratory Animal Center of Zhengzhou University, Henan) of either sex were killed by cervical vertebral dislocation. Bilateral thighbones were isolated and caput femoris was cut off. The marrow was washed repeatedly with serum-free RPMI1640 (Gibco Corp.), the wash solution containing marrow cells was collected, sucked and blew repeatedly with a pipette to make the cells disperse. After standing for a moment, the supernatant was sucked up and centrifugated at 100 g for 3 min to collect the cell pellet. The cells were resuspended in a culture media and brought to a volume of 5 ml. The cell suspension was added to the upper layer of a centrifugal tube containing 5 ml of a lymphocyte separation medium of mice and centrifugated at 400 g for 30 min. The milk-white bone marrow mononuclear cell (BMMNC) layer in the middle of the interface was collected and washed with serum-free medium RPMI1640 for three times to obtain a BMMNC suspension, which was inoculated into a 96-well plate at forty thousand per well after counting. Positive drugs rhG-CSF (recombinant granulocyte colony-stimulating factor, manufactured by QI LU Pharmaceutical Co., LTD., Shandong) or test samples of different concentrations were added, and meanwhile a blank control group without drug was established. They were cultured in a 5% CO2 incubator at 37 for 5 days. Cell proliferation was measured by a conventional SRB (Sigma) method in which OD at 490 nm was measured after being dyed with SRB. The growth rates of cell proliferation after drug treatment were calculated (Growth rate of cell proliferation=experimental group-blank control group/blank control group*100%).

leukocytes (WBC) = assay: Cyclophosphamide-induced leukopenia in mice: leukocytes (WBC); format: in vivo, Kunming mice
Method: (§1) Further, in vivo experiments were carried out on the compounds involved in the present invention using animal models of cyclophosphamide-induced leukopenia in mice. Experimental methods are briefed as follows: Healthy Kunming mice, of which half were male and the other half were female, were divided into groups, each group incuding 18 mice, and those mice weighing 18-22 g were selected and divided into groups randomly according to their body weights. Each group was given a different drug, wherein the negative control group and model control group were given physiological saline of the same volume, and the positive control group was treated with granulocyte colony-stimulating factors 40 μg/kg through subcutaneous injection (injection volume: 0.1 ml/10 g). After administration for 3 days, except the negative control group, other treatment groups were treated with 100 mg/kg cyclophosphamide (CY) through lumbar injection once a day for three days to cause a decrease of leukocytes in mice. A drop of blood (20 μl) was taken from posterior orbital venous plexus to detect the hemogram to observe the situation of leukocytes and platelets on day 1, day 3 and/or day 5 after the final lumbar injection of cyclophosphamide (i.e day 1, day 3 and/or day 5 after modeling) (Note: Each treatment group was administrated incessantly). The mice were killed on day 5 after the final lumbar injection of cyclophosphamide (i.e day 5 after modeling), and the leukocytes (WBC) and platelets (PLT) of the hemogram index were counted.
This experiment mainly studies the effect of G-1, G-6 and G-8 of ursolic acid saponin in increasing leukocytes, and compares the therapeutic effects of aglycon of ursolic acid and oleanolic acid and of the compound G-22 which has been disclosed by a patent.
(§2) The purpose of this experiment is to study the effect of G-1, G-3, G-11 and G-12 of ursolic acid saponin and oleanolic acid saponin in increasing platelets, and to observe whether G-11 and G-12 of oleanolic acid saponin have an effect in increasing leukocytes.

platelets (PLT) = assay: Cyclophosphamide-induced leukopenia in mice: platelets (PLT); format: in vivo, Kunming mice; settings: Experimental Example 3
Method: as §1, §2

WBC = assay: 60Co-γ-induced leukopenia in mice: WBC; format: in vivo, Kunming mice
From the text: In order to illustrate the present invention in detail, with a model induced by ^60Co-γ rays, the effects of G-1 and G-22 on leukocytes of chemotherapy-induced-leukopenia mice were compared. The specific operation and the results are as follows.
Healthy Kunming mice, of which half were male and the other half were female, were divided into 6 groups randomly, with 17-18 in each group. Blood was taken from caudal vein to determine the normal hemogram (leucocyte, erythrocyte, platelet and hemoglobin), and adjustments were made according to body weights and hemogram results. The normal control group and model group were given isometric physiological saline once a day for 7 days, and then the post-radiation hemogram was determined. Except the normal control group, other groups were each subjected to a whole body exposure to ^60Co-γ rays at a total dose of 3.0 Gy to prepare the models of leukopenia in mice, followed by further administration for 14 days. The G-CSF group was adminitrated through subcutaneous injection for 5 days from the irradiation day on and the hemogram was determined by taking blood respectively on day 3, day 7 and day 14 after irradiation.

[2] = Experimental Example 2, 0.8 mg/kg
[3] = Experimental Example 2, 0.8 mg/kg, CY 100 mg/kg x 3 days
[4] = Experimental Example 2, 0.8 mg/kg, especially on day 3 after modeling
[5] = Experimental Example 3, 0.8 mg/kg
[6] = 0.80 mg/kg i.g., 3.0 Gy whole body
[7] = 40 μg/kg subcutaneous injection
[8] = Experimental Example 2, 40 μg/kg subcutaneous injection
[9] = Experimental Example 3, 40 μg/kg subcutaneous injection
[10] = 40 μg/kg s.c. for 5 days from irradiation day, 3.0 Gy

Molecule	HD50 (drug concentration causing 50% hemolysis) (erythrocytes)	Growth Rate of Proliferation %, 1 μg/ml [1]	leukocytes (WBC), Day 3 after modeling (leukocytes (WBC); [2])	leukocytes (WBC), Day 5 after modeling (leukocytes (WBC); [2])	leukocytes (WBC), Day1 after modeling (leukocytes (WBC); [3])	difference in increasing leukocytes compared with G-22 (in words) (leukocytes (WBC); [4])	platelets, Day 1 after modelng (platelets (PLT); 0.8 mg/kg)	platelets, Day 5 after modeling (platelets (PLT); 0.8 mg/kg)	leukocytes, Day 1 after modeling (leukocytes (WBC); [5])	leukocytes, Day 5 after modeling (leukocytes (WBC); [5])	also measured
C[C@H]1[C@H](C)CC[C@]2(C(=O)O)CC[C@]3(C)C(=CC[C@@H]4[C@@]5(C)CC[C@H](O[C@@H]6OC[C@H](O)[C@H](O)[C@H]6O)C(C)(C)[C@@H]5CC[C@]43C)[C@H]12 [Sample G-6, 3-O-(α-L-arabopyranosyl) ursolic acid]	121.40 µg/mL	29.9%	7.13 ± 2.61**★	17.16 ± 14.13	1.19 ± 0.47	obvious difference in increasing leukocytes	–	–	–	–	–
C[C@H]1[C@H](C)CC[C@]2(C(=O)O[C@@H]3O[C@H](CO)[C@@H](O)[C@H](O)[C@H]3O)CC[C@]3(C)C(=CC[C@@H]4[C@@]5(C)CC[C@H](O[C@@H]6OC[C@H](O)[C@H](O)[C@H]6O)C(C)(C)[C@@H]5CC[C@]43C)[C@H]12 [Sample G-8, 3-O-(α-L-arabopyranosyl) ursolic acid-28-O-(β-D-glucopyranosyl) ester]	69.96 µg/mL	29.5%	6.91 ± 2.54**★	15.32 ± 9.07	0.85 ± 0.39	obvious difference in increasing leukocytes	–	–	–	–	–
C[C@H]1[C@H](C)CC[C@]2(C(=O)O[C@@H]3O[C@H](CO)[C@@H](O)[C@H](O)[C@H]3O)CC[C@]3(C)C(=CC[C@@H]4[C@@]5(C)CC[C@H](O[C@@H]6O[C@H](CO)[C@@H](O)[C@H](O)[C@H]6O)C(C)(C)[C@@H]5CC[C@]43C)[C@H]12 [Sample G-3, 3-O-(β-D-glucopyranosyl) ursolic acid-28-O-(β-D-glucopyranosyl) ester]	137.99 µg/mL	25.2%	–	–	–	–	473.12 ± 144.68	341.93 ± 186.39**★	1.16 ± 0.53	5.62 ± 2.78	difference in increasing platelets compared with G-22 (in words) (platelets (PLT); 0.8 mg/kg, day 5 after modeling): significant difference in increasing leukocytes and platelets; difference in increasing leukocytes compared with G-22 (in words) (leukocytes (WBC); Experimental Example 3, 0.8 mg/kg, day 5 after modeling): significant difference in increasing leukocytes and platelets
C[C@@H]1CC[C@]2(C(=O)O[C@@H]3O[C@H](CO)[C@@H](O)[C@H](O)[C@H]3O)CC[C@]3(C)C(=CC[C@@H]4[C@@]5(C)CC[C@H](O[C@@H]6OC[C@H](O)[C@H](O)[C@H]6O)C(C)(C)[C@@H]5CC[C@]43C)[C@@H]2[C@]1(C)O [Sample G-22, 3-O-(α-L-arabopyranosyl)-19-hydroxy-ursolic acid-28-O-(β-D-glucopyranosyl) ester, reference compound]	–	15.2%	5.17 ± 1.77	11.87 ± 9.53	1.08 ± 0.34Δ	–	491.36 ± 126.28	210.00 ± 119.38	0.92 ± 0.28	8.81 ± 6.44	effect on leucocyte count of leukopenia mice (in words) (WBC; 0.80 mg/kg gastric perfusion, versus model group, day 7 and day 14 after irradiation): no evident effect; WBC, 1 week after administration (WBC; 0.80 mg/kg i.g. once a day for 7 days, before irradiation): 9.50 ± 3.17 109/L; WBC, Day 3 after irradiation (WBC; [6]): 2.21 ± 0.92 109/L; WBC, Day 7 after irradiation (WBC; [6]): 4.08 ± 1.50 109/L; WBC, Day 14 after irradiation (WBC; [6]): 5.44 ± 1.13 109/L; WBC, Normal (WBC; normal hemogram before administration (baseline), 0.80 mg/kg i.g. group): 8.56 ± 2.43 109/L
G-CSF: recombinant granulocyte colony-stimulating factor, manufactured by QI LU Pharmaceutical Co., LTD., Shandong (protein, UniProt P09919 31-207, looked up) Granulocyte …: TPLGPASSLPQSFLLKCLEQVRKIQGDGAALQEKLVSECATYKLCHPEELVLLGHSLGIPWAPLSSCPSQALQLAGCLSQLHSGLFLYQGLLQALEGISPELGPTLDTLQLDVADFATTIWQQMEELGMAPALQPTQGAMPAFASAFQRRAGGVLVASHLQSFLEVSYRVLRHLAQP	–	–	–	–	–	–	–	–	–	–	platelets, Day 1 after modelng (platelets (PLT); [7]): 408.38 ± 86.38; platelets, Day 5 after modeling (platelets (PLT); [7]): 206.64 ± 140.14; effect in increasing platelets (in words) (platelets (PLT); G-CSF 40 μg/kg subcutaneous injection): no obvious effect in increasing platelets; Growth Rate of Proliferation % ([1]; G-CSF positive drug at 5 pg/ml): 33.2%; leukocytes (WBC), Day1 after modeling (leukocytes (WBC); [8]): 1.17 ± 0.33; leukocytes (WBC), Day 3 after modeling (leukocytes (WBC); [8]): 5.93 ± 3.10; leukocytes (WBC), Day 5 after modeling (leukocytes (WBC); [8]): 13.18 ± 5.53; leukocytes, Day 1 after modeling (leukocytes (WBC); [9]): 0.63 ± 0.20; leukocytes, Day 5 after modeling (leukocytes (WBC); [9]): 9.70 ± 5.28; WBC, Day 3 after irradiation (WBC; [10]): 3.71 ± 1.11** 109/L; WBC, Day 7 after irradiation (WBC; [10]): 4.56 ± 1.17** 109/L; WBC, Day 14 after irradiation (WBC; [10]): 7.01 ± 1.52** 109/L; WBC, 1 week after administration (WBC; G-CSF group before irradiation, G-CSF is given only from the irradiation day on): 9.89 ± 3.30 109/L; WBC, Normal (WBC; normal hemogram (baseline), G-CSF group, not yet dosed): 8.64 ± 2.01 109/L
